Test results published in patent US20090247579A1, “2-[3H-THIAZOL-2-YLIDINEMETHYL]PYRIDINES AND RELATED COMPOUNDS AND THEIR USE” (CANCER RESEARCH TECHNOLOGY LIMITED, priority 2006, published 2009).

What was measured:
A2780 = assay: Modified MTT assay, A2780 (parental, MMR proficient); type: cell-based, human; details: Homo sapiens, A2780, 24 hour drug exposure
Procedure: (§1) Relative drug sensitivities (Resistance Factor) and IC50 values were determined by a modified MTT assay (see, e.g., Mosmann, 1983; Plumb et al., 1989), as described below: • (1) Trypsinise a sub-confluent monolayer culture and collect cells in growth medium containing serum. Centrifuge the suspension (200 g, 5 minutes) to pellet cells, re-suspend in growth medium, and count cells. Dilute cells to a density of 5×10^3 cells/mL allowing 60 mL of cell suspension for 3 microtitre plates. Transfer cell suspension to a 10 cm petri dish, and with a multichannel pipette add 200 μL to each well of the central 10 columns of a flat bottomed 96-well plate (80 wells per plate) starting with column 2 and ending with column 11. Add 200 μL of growth medium to the 8 wells in columns 1 and 12. Put the plates in a plastic box and incubate in a humidified atmosphere at 37° C. for 2-3 days so that cells are in the exponential phase of growth for drug addition. • (2) Prepare a serial 5-fold dilution of the cytotoxic drug in growth medium to give 8 concentrations. Pipette 6 mL of growth medium in to each of 7 universal containers (30 mL). Prepare 10 mL of the highest concentration of the drug and transfer 1.5 mL of this solution to the first universal container. Mix and then transfer 1.5 mL to the next universal container. Continue until the seventh universal container is reached. The concentrations should be chosen so that the highest concentration kills most of the cells and the lowest kills none of the cells. Normally, three plates are used for each drug to give triplicate determinations within one experiment. • (3) The medium is removed from all the wells in columns 2 to 11. This can be achieved with a hypodermic needle attached to a suction line. Cells in the 8 wells in columns 2 and 11 are fed with 200 μL of fresh growth medium. The drug solutions are transferred to 10 cm petri dishes and 200 μL added to all 8 wells of a column. For ease of analysis arrange the drug solutions in order so that the highest is in column 3 down to the lowest in column 10. Plates are returned to the plastic box and incubated for 24 hours. • (4) At the end of the drug exposure period, the medium is removed from all wells containing cells and the cells are fed with 200 μL of fresh medium. • (5) The plates are fed daily for two more days. • (6) The plates are fed with 200 μL of fresh medium and 50 μL of the MTT solution (5 mg/mL in PBS) is added to all wells in columns 1 to 11. Plates are wrapped in aluminium foil and incubated for 4 hours in a humidified atmosphere at 37° C. • (7) The medium and MTT are then removed from the wells and the purple MTT-formazan crystals dissolved by addition of 200 μL of DMSO to all wells in columns 1 to 11. Glycine buffer is added (25 μL per well) to all wells containing DMSO. • (8) Absorbance is recorded at 570 nm with the wells in column 1, which contained medium and MTT but no cells used as a blank. • (9) A graph is plotted of absorbance (y-axis) against drug concentration (x-axis). The mean absorbance reading from the wells in columns 2 and 11 is used as the control absorbance and the IC50 concentration is determined as the drug concentration required to reduce the absorbance to half that of the control. IC10 or IC90 values can be determined in the same manner.
(§2) A2780/cp70 and A2780/mcp1 have lost expression of MLH1, have lost MMR activity, and have microsatellite instability compared to A2780. The CpG island at the MLH1 gene is methylated in A2780/cp70 and A2780/mcp1, but not A2780.
(§3) IC50 values (μM) for A2780, A2780/cp70, and A2780/mcp1 and Resistance Factors (RF) (the fold difference in resistance from parental A2780) were determined based on the MTT assay described above for several compounds of the present invention (including, e.g., MMR201).

[1] = system: A2 (MLH1−ve, MMR deficient); assay: Modified MTT assay, A2 line (A2780/cp70 + chromosome 3, MLH1 -ve); type: cell-based, human; details: for IC50: Homo sapiens, A2780/CP70, A2 line
Procedure: as §1
(§4) A1, E1, and A2 are derived by transfer of human chromosome 3 into A2780/cp70. MLH1 is located on chromosome 3.
(§5) IC50 values (μM) for A1 (MLH1+ve, MMR proficient) or E1 (MLH1+ve, MMR proficient) and A2 (MLH1−ve, MMR deficient) lines and Resistance Factors (RF) (the fold difference in resistance between the A2 line, MMR deficient, and the A1 line, MMR proficient) were determined based on the MTT assay described above for several compounds of the present invention (including, e.g., MMR201). Compounds showing increased activity against the MLH1 deficient A2 line compared to the MLH1 proficient A1 or E1 line have RF values less than 1.

A2780/mcp1 = assay: Modified MTT assay, A2780/mcp1 (cisplatin resistant, MMR deficient); type: cell-based, human; details: 24 hour drug exposure; for IC50: Homo sapiens, A2780/mcp1, MTT; for A2780/mcp1 RF (Resistance Factor): fold difference in resistance from parental A2780
Procedure: as §1, §2, §3

[2] = system: A1 (MLH1+ve, MMR proficient); assay: Modified MTT assay, A1 line (A2780/cp70 + chromosome 3, MLH1 +ve); type: cell-based, human; details: Homo sapiens, A2780/CP70, read-out: A1 or E1 MLH1 +ve MMR proficient IC50
Procedure: as §1, §4, §5

A2780/cp70 = assay: Modified MTT assay, A2780/cp70 (cisplatin resistant, MMR deficient); type: cell-based, human; details: 24 hour drug exposure; for IC50: Homo sapiens, A2780/CP70, MTT; for A2780/cp70 RF (Resistance Factor): fold difference in resistance from parental A2780
Procedure: as §1, §2, §3

[3] = system: E1 (MLH1+ve, MMR proficient); assay: Modified MTT assay, E1 line (A2780/cp70 + chromosome 3, MLH1 +ve); type: cell-based; details: Homo sapiens, read-out: A1 or E1 MLH1 +ve MMR proficient IC50
Procedure: Relative drug sensitivities (Resistance Factor) and IC50 values were determined by a modified MTT assay (see, e.g., Mosmann, 1983; Plumb et al., 1989), as described below: • (1) Trypsinise a sub-confluent monolayer culture and collect cells in growth medium containing serum. Centrifuge the suspension (200 g, 5 minutes) to pellet cells, re-suspend in growth medium, and count cells. Dilute cells to a density of 5×10^3 cells/mL allowing 60 mL of cell suspension for 3 microtitre plates. Transfer cell suspension to a 10 cm petri dish, and with a multichannel pipette add 200 μL to each well of the central 10 columns of a flat bottomed 96-well plate (80 wells per plate) starting with column 2 and ending with column 11. Add 200 μL of growth medium to the 8 wells in columns 1 and 12. […] Glycine buffer is added (25 μL per well) to all wells containing DMSO. • (8) Absorbance is recorded at 570 nm with the wells in column 1, which contained medium and MTT but no cells used as a blank. • (9) A graph is plotted of absorbance (y-axis) against drug concentration (x-axis). The mean absorbance reading from the wells in columns 2 and 11 is used as the control absorbance and the IC50 concentration is determined as the drug concentration required to reduce the absorbance to half that of the control. IC10 or IC90 values can be determined in the same manner. […]

[4] = fold difference in resistance between A2 (MMR deficient) and A1 (MMR proficient)

Structure (SMILES)	IC50 [1] [nM]	IC50 (A2780/mcp1) [nM]	IC50 [2] [nM]	IC50 (A2780/cp70) [nM]	IC50 [3] [nM]	IC50 (A2780) [nM]	RF (Resistance Factor) [1, 4]	A2780/mcp1 RF (Resistance Factor) (A2780/mcp1)	A2780/cp70 RF (Resistance Factor) (A2780/cp70)	RF (Resistance Factor) ([1]; A2 (MMR deficient) versus E1 (MMR proficient))
CC[n+]1c(/C=C2\SC=C(C)N2C)ccc2ccccc21.[I-] [MMR213]	530 ± 18	358 ± 103	2550 ± 180	325 ± 44	–	1230 ± 51	0.21	0.29	0.26	–
CC[n+]1ccccc1/C=C1\SC=C(C)N1C.[I-] [MMR304]	16100 ± 2540	35600 ± 1960	54200 ± 10800	18000 ± 1300	–	64500 ± 3910	0.30	0.55	0.28	–
CC[n+]1ccccc1/C=C1\Sc2oc3ccccc3c2N1C.[I-] [MMR307]	648 ± 85	716 ± 41	–	932 ± 95	937 ± 66	752 ± 73	–	0.95	1.24	0.69

Continued by falling IC50 [1], values first:

IC50 [1] [nM]	IC50 (A2780/mcp1) [nM]	IC50 [2] [nM]	IC50 (A2780/cp70) [nM]	IC50 [3] [nM]	Structure (SMILES)	IC50 (A2780) [nM]	RF (Resistance Factor) [1, 4]	A2780/mcp1 RF (Resistance Factor) (A2780/mcp1)	A2780/cp70 RF (Resistance Factor) (A2780/cp70)	RF (Resistance Factor) ([1]; A2 (MMR deficient) versus E1 (MMR proficient))
4150 ± 800	12900 ± 1000	2830 ± 460	7100 ± 370	–	CC[n+]1ccccc1/C=C1\SC=CN1C.[I-] [MMR302]	13600 ± 1550	1.5	0.95	0.52	–
681 ± 76	481 ± 48	4100 ± 450	435 ± 22	–	CC[n+]1c(/C=C2\SC=CN2C)ccc2ccccc21.[I-] [MMR212]	1670 ± 370	0.17	0.29	0.26	–
27 ± 3	38 ± 6	144 ± 9	40 ± 4	–	CC[n+]1c(/C=C2\Sc3oc4ccccc4c3N2C)ccc2ccccc21.[I-] [MMR211]	69 ± 7	0.19	0.55	0.58	–
